Converted amounts (≈) assume the structure as drawn.
Columns and labels:
E. coli topoisomerase IV = E. coli topoisomerase IV (Escherichia coli (strain K12), UniProt P20083); experiment: Topoisomerase IV inhibition assay (Inspiralis, streptavidin-coated plates); type: biochemical
Description: Inhibitory activities for compounds of the present invention were determined on E. coli and S. aureus DNA gyrase and topoisomerase IV in an assay from Inspiralis on streptavidin-coated 96-well microtiter plates from Thermo scientific Pierce. […] After washing off the unbound oligonucleotide, the enzyme test was performed. […] Reaction solutions were incubated at 37° C. for 30 min. After that, the TF buffer (50 mM NaOAc with pH 5.0, 50 mM NaCl and 50 mM MgCl2) was added to terminate the enzymatic reaction. After additional incubation for 30 min at rt, during which biotin-oligonucleotide-plasmid triplex was formed, the unbound plasmid was washed off using TF buffer and SybrGOLD in T10 buffer (10 mM Tris HCl with pH 8.0 and 1 mM EDTA) was added. […] Initial screening was done at 100 or 10 nM concentration of inhibitors against E. coli DNA gyrase or 1 μM or 100 nM concentration against S. aureus DNA gyrase and E. coli and S. aureus topo IV. […] GraphPad Prism 6.0 software was used to calculate the IC50 values. The result is given as the average value of three independent measurements. […] Chemoth.

S. aureus DNA gyrase = S. aureus DNA gyrase (Staphylococcus aureus, UniProt P0A0K8); experiment: biochemical; conditions: read-out: IC50 DNA gyrase from S. aureus
Description: (§1) Inhibitory activities for compounds of the present invention were determined on E. coli and S. aureus DNA gyrase and topoisomerase IV in an assay from Inspiralis on streptavidin-coated 96-well microtiter plates from Thermo scientific Pierce. […] After washing off the unbound oligonucleotide, the enzyme test was performed. […] Reaction solutions were incubated at 37° C. for 30 min. After that, the TF buffer (50 mM NaOAc with pH 5.0, 50 mM NaCl and 50 mM MgCl2) was added to terminate the enzymatic reaction. After additional incubation for 30 min at rt, during which biotin-oligonucleotide-plasmid triplex was formed, the unbound plasmid was washed off using TF buffer and SybrGOLD in T10 buffer (10 mM Tris HCl with pH 8.0 and 1 mM EDTA) was added. […] GraphPad Prism 6.0 software was used to calculate the IC50 values. The result is given as the average value of three independent measurements. […] Chemoth.

E. faecalis ATCC 29212 = experiment: Microbroth dilution MIC (CLSI); conditions: Enterococcus faecalis, ATCC29212, read-out: MIC (μg/mL) E. faecalis ATCC 29212
E. coli DNA gyrase = E. coli DNA gyrase (Escherichia coli (strain K12), UniProt P0AES6); experiment: DNA gyrase inhibition assay (Inspiralis, streptavidin-coated plates); type: biochemical
Description: as §1

[1] = target: S. aureus topoisomerase IV (Staphylococcus aureus, UniProt P0C1S7); experiment: Topoisomerase IV inhibition assay (Inspiralis, streptavidin-coated plates); type: biochemical; conditions: read-out: IC50 DNA topoisomerase IV from S. aureus
Description: Inhibitory activities for compounds of the present invention were determined on E. coli and S. aureus DNA gyrase and topoisomerase IV in an assay from Inspiralis on streptavidin-coated 96-well microtiter plates from Thermo scientific Pierce. First, the plates were rehydrated with buffer (20 mM Tris-HCl with pH 7.6, 0.01% w/v BSA, 0.05% v/v Tween 20, 137 mM NaCl) and the biotinylated oligonucleotide was then immobilized. After washing off the unbound oligonucleotide, the enzyme test was performed. […] Reaction solutions were incubated at 37° C. for 30 min. After that, the TF buffer (50 mM NaOAc with pH 5.0, 50 mM NaCl and 50 mM MgCl2) was added to terminate the enzymatic reaction. After additional incubation for 30 min at rt, during which biotin-oligonucleotide-plasmid triplex was formed, the unbound plasmid was washed off using TF buffer and SybrGOLD in T10 buffer (10 mM Tris HCl with pH 8.0 and 1 mM EDTA) was added. The fluorescence was measured with a microplate reader (BioTek Synergy H4, excitation: 485 nm, emission: 535 nm). […]. GraphPad Prism 6.0 software was used to calculate the IC50 values. The result is given as the average value of three independent measurements. […]. Chemoth. 66, 2061-2096 (2011))) for E. coli and S. aureus topoisomerase IV) was used.

E. coli ATCC 25922 = experiment: Microbroth dilution MIC (CLSI); conditions: Escherichia coli, ATCC25922, read-out: MIC (μg/mL) E. coli ATCC 25922
S. aureus ATCC 29213 = experiment: Microbroth dilution MIC (CLSI); conditions: Staphylococcus aureus, ATCC29213, read-out: MIC (μg/mL) S. aureus ATCC 29213
E. faecium ATCC 35667 = experiment: Microbroth dilution MIC (CLSI); conditions: Enterococcus faecium, ATCC35667, read-out: MIC (μg/mL) E. faecium ATCC 35667

E. coli topoisomerase IV, sequence (P20083 whole entry, looked up): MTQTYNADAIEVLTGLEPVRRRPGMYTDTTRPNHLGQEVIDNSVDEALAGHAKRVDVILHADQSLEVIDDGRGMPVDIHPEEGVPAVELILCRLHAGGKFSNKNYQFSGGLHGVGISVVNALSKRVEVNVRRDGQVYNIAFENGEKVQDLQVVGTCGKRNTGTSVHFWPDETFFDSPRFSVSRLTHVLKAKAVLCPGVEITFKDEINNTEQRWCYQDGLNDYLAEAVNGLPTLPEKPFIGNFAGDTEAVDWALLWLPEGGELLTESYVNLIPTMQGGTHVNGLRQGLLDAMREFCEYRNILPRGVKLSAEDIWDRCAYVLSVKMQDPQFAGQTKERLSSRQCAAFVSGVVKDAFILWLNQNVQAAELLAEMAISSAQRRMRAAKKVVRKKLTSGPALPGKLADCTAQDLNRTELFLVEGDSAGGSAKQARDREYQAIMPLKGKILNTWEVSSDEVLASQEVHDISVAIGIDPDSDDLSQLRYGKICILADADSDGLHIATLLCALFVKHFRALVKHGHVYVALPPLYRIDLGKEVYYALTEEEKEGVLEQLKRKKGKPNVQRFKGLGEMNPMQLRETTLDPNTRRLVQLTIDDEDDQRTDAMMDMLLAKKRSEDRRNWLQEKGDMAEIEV
E. coli topoisomerase IV, sequence (P0AFI2 whole entry partner, looked up): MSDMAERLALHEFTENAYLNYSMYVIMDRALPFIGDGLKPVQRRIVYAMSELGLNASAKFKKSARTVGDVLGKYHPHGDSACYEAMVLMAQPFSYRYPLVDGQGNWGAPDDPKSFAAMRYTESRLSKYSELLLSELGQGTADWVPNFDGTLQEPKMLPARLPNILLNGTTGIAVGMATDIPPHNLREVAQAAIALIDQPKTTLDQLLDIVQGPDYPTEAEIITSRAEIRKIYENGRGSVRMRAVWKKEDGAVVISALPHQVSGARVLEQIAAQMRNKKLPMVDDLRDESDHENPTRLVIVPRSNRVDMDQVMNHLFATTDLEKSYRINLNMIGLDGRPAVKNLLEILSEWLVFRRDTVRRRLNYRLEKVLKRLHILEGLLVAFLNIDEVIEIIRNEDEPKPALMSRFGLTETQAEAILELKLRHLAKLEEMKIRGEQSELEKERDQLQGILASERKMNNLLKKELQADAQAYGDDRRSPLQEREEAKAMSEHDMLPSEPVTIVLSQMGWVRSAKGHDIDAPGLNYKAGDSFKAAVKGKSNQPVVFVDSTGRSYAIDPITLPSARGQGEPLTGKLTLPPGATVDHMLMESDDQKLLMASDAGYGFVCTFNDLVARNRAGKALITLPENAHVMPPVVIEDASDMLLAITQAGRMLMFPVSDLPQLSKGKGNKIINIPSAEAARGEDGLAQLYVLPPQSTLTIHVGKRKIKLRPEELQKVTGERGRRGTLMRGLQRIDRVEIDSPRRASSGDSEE

SMILES	IC50 (E. coli topoisomerase IV) [nM]	IC50 (S. aureus DNA gyrase) [nM]	MIC (E. faecalis ATCC 29212) [µg/mL]	IC50 (E. coli DNA gyrase) [nM]	IC50 [1] [nM]	MIC (E. coli ATCC 25922) [µg/mL]	MIC (S. aureus ATCC 29213) [µg/mL]	MIC (E. faecium ATCC 35667) [µg/mL]
Cc1[nH]c(C(=O)Nc2nc3c(OCc4cccs4)cc(C(=O)O)cc3s2)c(Cl)c1Cl [Example 32, 2-(3,4-dichloro-5-methyl-1H-pyrrole-2-carboxamido)-4-(thiophen-2-ylmethoxy)benzo[d]thiazole-6-carboxylic acid]	< 400	< 20	0.0163 (≈ 0.0337 µM)	< 5	< 400	8 (≈ 16.6 µM)	0.065 (≈ 0.135 µM)	
Cc1[nH]c(C(=O)Nc2nc3c(OCc4ccc(C(=O)O)cc4)cc(C(=O)O)cc3s2)c(Cl)c1Cl [Example 12, 4-((4-carboxybenzyl)oxy)-2-(3,4-dichloro-5-methyl-1H-pyrrole-2-carboxamido)benzo[d]thiazole-6-carboxylic acid]	< 400	< 20	> 64	< 5	< 400	> 64	> 64	> 64
Cc1[nH]c(C(=O)Nc2nc3c(N4CCCC4)cc(C(=O)O)cc3s2)c(Cl)c1Cl [Example 37, 2-(3,4-dichloro-5-methyl-1H-pyrrole-2-carboxamido)-4-(pyrrolidin-1-yl)benzo[d]thiazole-6-carboxylic acid]	< 400	< 20	0.125 (≈ 0.285 µM)	< 5	< 400	16 (≈ 36.4 µM)	0.25 (≈ 0.569 µM)	
Cc1[nH]c(C(=O)Nc2nc3c(OCc4cccc(C(=O)O)c4)cc(C(=O)O)cc3s2)c(Cl)c1Cl [Example 24, 4-((3-carboxybenzyl)oxy)-2-(3,4-dichloro-5-methyl-1H-pyrrole-2-carboxamido)benzo[d]thiazole-6-carboxylic acid]	< 400	< 20	1.5 (≈ 2.88 µM)	< 5	< 400	> 64	> 64	
Cc1[nH]c(C(=O)Nc2nc3c(-c4ccccc4)cc(C(=O)O)cc3s2)c(Cl)c1Cl [Example 44, 2-(3,4-dichloro-5-methyl-1H-pyrrole-2-carboxamido)-4-phenylbenzo[d]thiazole-6-carboxylic acid]	< 400	< 20	0.023 (≈ 0.0515 µM)	< 5	< 400	> 64	0.0312 (≈ 0.07 µM)	
Cc1[nH]c(C(=O)Nc2nc3c(OCc4cccc(F)c4)cc(C(=O)O)cc3s2)c(Cl)c1Cl [Example 30, 2-(3,4-dichloro-5-methyl-1H-pyrrole-2-carboxamido)-4-((3-fluorobenzyl)oxy)benzo[d]thiazole-6-carboxylic acid]		< 20	0.001 (≈ 0.00202 µM)		< 400	> 64	0.0625 (≈ 0.126 µM)	
COc1cc(C(=O)O)cc2sc(NC(=O)c3[nH]c(C)c(Cl)c3Cl)nc12 [Example 8, 2-(3,4-dichloro-5-methyl-1H-pyrrole-2-carboxamido)-4-methoxybenzo[d]thiazole-6-carboxylic acid]			0.25 (≈ 0.625 µM)	7.6 ± 3.4		64 (≈ 160 µM)	2 (≈ 5 µM)	1.25 (≈ 3.12 µM)
Cc1[nH]c(C(=O)Nc2nc3c(OCc4ccsc4)cc(C(=O)O)cc3s2)c(Cl)c1Cl [Example 31, 2-(3,4-dichloro-5-methyl-1H-pyrrole-2-carboxamido)-4-(thiophen-3-ylmethoxy)benzo[d]thiazole-6-carboxylic acid]	< 400	< 20	0.0156 (≈ 0.0323 µM)	< 5	< 400	4 (≈ 8.29 µM)	0.25 (≈ 0.518 µM)	
Cc1[nH]c(C(=O)Nc2nc3ccc(-c4nnn[nH]4)cc3s2)c(Cl)c1Cl [Example 17, N-(6-(1H-tetrazol-5-yl)benzo[d]thiazol-2-yl)-3,4-dichloro-5-methyl-1H-pyrrole-2-carboxamide]			1 (≈ 2.54 µM)	< 5		> 64	16 (≈ 40.6 µM)	1.23 (≈ 3.12 µM)
Cc1[nH]c(C(=O)Nc2nc3ccc(C(=O)NO)cc3s2)c(Cl)c1Cl [Example 20, 2-(3,4-dichloro-5-methyl-1H-pyrrole-2-carboxamido)-N-hydroxybenzo[d]thiazole-6-carboxamide]			0.5 (≈ 1.3 µM)	280 ± 10		> 64	64 (≈ 166 µM)	38.5 (≈ 100 µM)
O=C(NO)c1ccc2nc(NC(=O)c3cc(Br)c(Br)[nH]3)sc2c1 [Example 19, 2-(4,5-dibromo-1H-pyrrole-2-carboxamido)-N-hydroxybenzo[d]thiazole-6-carboxamide]			64 (≈ 139 µM)	89 ± 20		> 64	> 64	> 64
O=C(O)c1ccc2nc(NC(=O)c3cc(Cl)c(Cl)[nH]3)sc2c1 [Example 3, 2-(4,5-dichloro-1H-pyrrole-2-carboxamido)benzo[d]thiazole-6-carboxylic acid]			8.9 (≈ 25 µM)	19 ± 1		> 64	> 64	17.8 (≈ 50 µM)
O=C(O)CCNC(=O)c1ccc2nc(NC(=O)c3cc(Br)c(Br)[nH]3)sc2c1 [Example 21, 3-(2-(4,5-dibromo-1H-pyrrole-2-carboxamido)benzo[d]thiazole-6-carboxamido)propanoic acid]			> 64	12 ± 5		> 64	> 64	> 64
Cc1[nH]c(C(=O)N(Cc2ccccc2)c2nc3ccc(C(=O)O)cc3s2)c(Cl)c1Cl [Example 16, 2-(N-benzyl-3,4-dichloro-5-methyl-1H-pyrrole-2-carboxamido)benzo[d]thiazole-6-carboxylic acid]			≤ 0.0312	< 5		64 (≈ 139 µM)	≤ 0.0312	0.36 (≈ 0.782 µM)
Cc1[nH]c(C(=O)Nc2nc3ccc(C(=O)NCCC(=O)O)cc3s2)c(Cl)c1Cl [Example 22, 3-(2-(3,4-dichloro-5-methyl-1H-pyrrole-2-carboxamido)benzo[d]thiazole-6-carboxamido)propanoic acid]			2 (≈ 4.53 µM)	7 ± 0.9		> 64	32 (≈ 72.5 µM)	5.52 (≈ 12.5 µM)
Cc1[nH]c(C(=O)Nc2nc3ccc(C(=O)NCC(=O)O)cc3s2)c(Cl)c1Cl [Example 23, (2-(3,4-dichloro-5-methyl-1H-pyrrole-2-carboxamido)benzo[d]thiazole-6-carbonyl)glycine]	< 400	< 20	16 (≈ 37.4 µM)	7.1 ± 3.2	< 400	> 64	64 (≈ 150 µM)	
O=C(O)c1ccc2nc(NC(=O)c3cc(Br)c(Br)[nH]3)sc2c1 [Example 2, 2-(4,5-dibromo-1H-pyrrole-2-carboxamido)benzo[d]thiazole-6-carboxylic acid]			2.78 (≈ 6.25 µM)	12 ± 7		> 64	> 64	5.56 (≈ 12.5 µM)
Cc1[nH]c(C(=O)Nc2nc3c(O)cc(C(=O)O)cc3s2)c(Cl)c1Cl [Example 7, 2-(3,4-dichloro-5-methyl-1H-pyrrole-2-carboxamido)-4-hydroxybenzo[d]thiazole-6-carboxylic acid]			2 (≈ 5.18 µM)	< 5		> 64	16 (≈ 41.4 µM)	1.21 (≈ 3.13 µM)

From patent US12258342B2, “Class of DNA gyrase and/or topoisomerase IV inhibitors with activity against gram-positive and gram-negative bacteria” (Univerza v Ljubljani, priority 2018, dated 2025)
